In patent US20050106582A1, “Compositions and methods utilizing stable reporter cell lines for detection of CREB-dependent signal transduction” (Stratagene, priority 1999, published 2005):
Like-named read-outs stand apart in the source and are kept apart here.

Experiments:
[1] = system: GAL4-CREB; assay: Luciferase reporter assay in RCLH-CREB stable cells treated with extracellular stimuli; type: cell-based, human; settings: 5 hours
[2] = system: GAL4-CREB; type: cell-based, human; settings: transient assays, 10 ug/ml; data not shown

Compound | effect on luciferase expression ([1]; 50 ug/ml) | stimulation of luciferase expression [2] [fold] | stimulation of luciferase expression ([1]; in the presence of 100 uM forskolin)
adenylate cyclase toxin [AC toxin] | approximately 7 fold | 13 | 
CCCCCCCCCCCCCC(=O)O[C@@H]1[C@@H](C)[C@@]2(O)[C@@H](C=C(CO)C[C@]3(O)C(=O)C(C)=C[C@@H]23)[C@@H]2C(C)(C)[C@]12OC(C)=O [PMA, phorbol-12-myristate-13-acetate] |  |  | approximately 70 fold
